ChEMBL document CHEMBL1141229, “On the use of nonfluorescent dye labeled ligands in FRET-based receptor binding studies” (J Med Chem, 2005)

Target: Muscarinic acetylcholine receptor M1 (Homo sapiens, UniProt P11229)
Test: Displacement of [3H]QNB from EGFP(delta-17)human M1 receptor expressed in HEK cells
Type: cell-based
Settings: hek293

Chain of Muscarinic acetylcholine receptor M1 (P11229 whole entry, looked up): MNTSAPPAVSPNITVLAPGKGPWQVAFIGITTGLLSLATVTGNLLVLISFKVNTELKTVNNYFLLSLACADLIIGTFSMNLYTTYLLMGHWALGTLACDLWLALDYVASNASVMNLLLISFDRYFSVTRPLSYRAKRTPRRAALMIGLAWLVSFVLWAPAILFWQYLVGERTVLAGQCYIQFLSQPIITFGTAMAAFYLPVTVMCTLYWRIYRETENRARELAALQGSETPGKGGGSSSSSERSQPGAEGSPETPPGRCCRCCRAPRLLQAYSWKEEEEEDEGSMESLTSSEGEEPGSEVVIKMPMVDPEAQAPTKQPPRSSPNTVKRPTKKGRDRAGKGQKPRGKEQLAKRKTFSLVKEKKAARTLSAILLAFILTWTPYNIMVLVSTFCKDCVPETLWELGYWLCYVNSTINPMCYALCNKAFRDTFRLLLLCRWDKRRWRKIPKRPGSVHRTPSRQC

SMILES | Ki [nM]
CCN(CC)c1ccc2c(-c3ccc(S(=O)(=O)NCCCCCC(=O)NCCOCCOCCN4CCN(CC(=O)N5c6ccccc6C(=O)Nc6cccnc65)CC4)cc3S(=O)(=O)[O-])c3ccc(=[N+](CC)CC)cc-3oc2c1 | 53.5
CCN(CC)c1ccc([C+](c2ccc(N(CC)CC)cc2)c2ccc(S(=O)(=O)NCCCCCC(=O)NCCOCCOCCN3CCN(CC(=O)N4c5ccccc5C(=O)Nc5cccnc54)CC3)cc2S(=O)(=O)[O-])cc1 | 189
CCN1/C(=C/C=C/c2ccc3cc(NC(=O)CCCCC(=O)O)ccc3[n+]2CC)C=Cc2ccccc21 | > 10000
CCN1/C(=C/C=C/c2ccc3cc(NC(=O)CCCCC(=O)NCCOCCOCCN4CCN(CC(=O)N5c6ccccc6C(=O)Nc6cccnc65)CC4)ccc3[n+]2CC)C=Cc2ccccc21 | 29.4
CCN(CC)c1ccc([C+](c2ccc(N(CC)CC)cc2)c2ccc(S(=O)(=O)NCCCCCC(=O)O)cc2S(=O)(=O)[O-])cc1 | > 10000
O=C(CCCCCNC(=O)CCc1ccc2n1[B-](F)(F)[N+]1=C(c3cccs3)C=CC1=C2)NCCCCN1CCN(CC(=O)N2c3ccccc3C(=O)Nc3cccnc32)CC1 | 69.7
